Measured values: patent publication US20260256794A1, “Oral Dynamine Formulations and Methods Therefor” (Ortho-Nutra, LLC, priority 2023, published 2026)

What was measured:
Type in all cases: in vivo, human
[1] = test system: subjects; assay: VAS-Sustained Energy; parameters: VAS-Sustained Energy rating, Mean / VAS-Sustained Energy changes from baseline, Mean Difference ± SE / VAS-Sustained Energy Δ, Mean Difference ± SE / VAS-Sustained Energy area under the curve, Mean Difference ± SE / VAS-Sustained Energy area under the curve, Mean: scale not given here; settings: for VAS-Sustained Energy Δ, effect size d / VAS-Sustained Energy Δ from 0 min, Mean / VAS-Sustained Energy Δ, Mean Difference ± SE: females; for VAS-Sustained Energy Δ, effect size d: vs placebo; for VAS-Sustained Energy Δ, Mean Difference ± SE: B vs A (placebo)
Method: (§1) The inventors have discovered various compositions and methods of improving various indices of neurological and neuroenergetic functions by administering 100 mg (once daily) dosages of DYNAMINE™ (dosage between 1.0 and 1.4 mg/kg) as described in the following:
(§2) All neuroenergetic tests as listed below were performed and data were collected after 0 and 4 days of assigned supplements (with acute effects also measured at day 4 over 180 minutes):
(§3) All VAS Measurement (Energy, Sustained Energy, Mental Stamina, Ability to Focus, Ability to Concentrate, Motivation to Accomplish Difficult Tasks, Drive, Vigor, Level of Positive Outlook, Mood, Feelings of Well-Being, Tolerate Stress); Day 0: Two tests were completed. The average of both scores was computed and this value was used in all statistical analysis. Day 4 (0 minutes after ingesting dose #4): Two tests were completed. The average of both scores was computed and this value was used in all statistical analysis. Day 4 (60, 120, and 180 minutes after ingesting dose #4): One test was completed at each time point.
(§4) Neuroenergic parameters are inherently subjective, nevertheless significant in human behavior and well-being. To allow for a standardization among different subjects, the following experiments were performed using a visual analog scale using anchor statements (lowest possible/highest possible) in which subjects were asked to rate their subjective experience with respect to the specific neuroenergic parameters tested.
VAS-Sustained Energy: In this subjective test, subjects were asked to rate their personal level of energy on a VAS scale using the prompt of “My level of sustained energy right now is . . . ” (with rating lowest possible to highest possible)”. Results were collected as noted above and Table 6 provides exemplary results for Day 0 versus Day 4 ratings, whereas Table 7 provides exemplary acute results measured at Day 4 over a duration of 180 minutes.

[2] = test system: subjects; assay: VAS-Ability to concentrate; parameters: VAS-Ability to concentrate rating, Mean / VAS-Ability to concentrate changes from baseline, Mean Difference ± SE / VAS-Ability to concentrate area under the curve, Mean Difference ± SE / VAS-Ability to concentrate area under the curve, Mean: scale not given here
Method: as §1, §2, §3, §4
VAS-Ability to concentrate: In this subjective test, subjects were asked to rate their personal level of energy on a VAS scale using the prompt of “My ability to concentrate right now is . . . ” (with rating lowest possible to highest possible)”. Results were collected as noted above and Table 16 provides exemplary results for Day 0 versus Day 4 ratings, whereas Table 17 provides exemplary acute results measured at Day 4 over a duration of 180 minutes.

[3] = test system: subjects; assay: VAS-Motivation; parameters: VAS-Motivation rating, Mean / VAS-Motivation changes from baseline, Mean Difference ± SE / VAS-Motivation area under the curve, Mean Difference ± SE / VAS-Motivation area under the curve, Mean: scale not given here
Method: as §1, §2, §3, §4
VAS-Motivation: In this subjective test, subjects were asked to rate their personal level of energy on a VAS scale using the prompt of “My motivation to accomplish difficult tasks right now is . . . ” (with rating lowest possible to highest possible)”. Results were collected as noted above and Table 19 provides exemplary results for Day 0 versus Day 4 ratings, whereas Table 20 provides exemplary acute results measured at Day 4 over a duration of 180 minutes.

[4] = test system: subjects; assay: VAS-Vigor; parameters: VAS-Vigor rating, Mean / VAS-Vigor changes from baseline, Mean Difference ± SE / VAS-Vigor area under the curve, Mean Difference ± SE / VAS-Vigor area under the curve, Mean: scale not given here
Method: as §1, §2, §3, §4
VAS-Vigor: In this subjective test, subjects were asked to rate their personal level of energy on a VAS scale using the prompt of “My level of vigor right now is . . . ” (with rating lowest possible to highest possible)”. Results were collected as noted above and Table 25 provides exemplary results for Day 0 versus Day 4 ratings, whereas Table 26 provides exemplary acute results measured at Day 4 over a duration of 180 minutes. […] Of note, it should be appreciated that drive is also often a function of dopamine activation. As above, is it therefore contemplated that methylliberine may also have an agonist effect on dopamine receptors or signaling.

[5] = 100 mg once daily, Day 4, 0-180 min
[6] = 100 mg once daily, Day 4, 0-180 min, vs Group A (placebo)
[7] = 100 mg once daily, Day 4, 0 min after dose #4
[8] = 100 mg once daily, Day 4, 60 min-0 min, vs Group A (placebo)
[9] = 100 mg once daily, Day 4, 60 min after dose #4
[10] = 100 mg once daily, Day 4, 120 min-0 min, vs Group A (placebo)
[11] = 100 mg once daily, Day 4, 120 min after dose #4
[12] = 100 mg once daily, Day 4, 180 min-0 min, vs Group A (placebo)
[13] = 100 mg once daily, Day 4, 180 min after dose #4
[14] = 100 mg once daily, Day 4, Δ @ 60 min
[15] = 100 mg once daily, Day 4, Δ @ 120 min
[16] = 100 mg once daily, Day 4, Δ @ 180 min

Compound: COc1nc2c(c(=O)n1C)n(C)c(=O)n2C [methylliberine, 2-methoxy-1,7,9-trimethylpurine-6,8-dione]
- VAS-Sustained Energy area under the curve, Mean [1, 5]: 1073
- VAS-Sustained Energy area under the curve, Mean Difference ± SE [1, 6]: 45.2 ± 41.7
- VAS-Sustained Energy area under the curve, effect size d [1, 6]: −0.13
- VAS-Sustained Energy rating, Mean [1, 7]: 5.7
- VAS-Sustained Energy changes from baseline, Mean Difference ± SE [1, 8]: 0.22 ± 0.22
- VAS-Sustained Energy changes from baseline, effect size d [1, 8]: 0.27
- VAS-Sustained Energy rating, Mean [1, 9]: 6.2
- VAS-Sustained Energy changes from baseline, Mean Difference ± SE [1, 10]: −0.11 ± 0.25
- VAS-Sustained Energy changes from baseline, effect size d [1, 10]: −0.11
- VAS-Sustained Energy rating, Mean [1, 11]: 6.3
- VAS-Sustained Energy changes from baseline, Mean Difference ± SE [1, 12]: 0.24 ± 0.23
- VAS-Sustained Energy changes from baseline, effect size d [1, 12]: 0.24
- VAS-Sustained Energy rating, Mean [1, 13]: 6.5
- VAS-Sustained Energy rating, Mean ([1]; Day 0 (before supplementation)): 5.6
- VAS-Sustained Energy Δ, effect size d ([1]; 100 mg once daily, Day 4, 60 min): 0.86
- VAS-Sustained Energy Δ, effect size d ([1]; 100 mg once daily, Day 4, 120 min): 0.62
- VAS-Sustained Energy Δ, effect size d ([1]; 100 mg once daily, Day 4, 120 min, listed as B): 0.03
- VAS-Sustained Energy Δ, effect size d ([1]; 100 mg once daily, Day 4, 180 min): 0.62
- VAS-Sustained Energy Δ from 0 min, Mean [1, 14]: 0.85
- VAS-Sustained Energy Δ, Mean Difference ± SE [1, 14]: 0.74 ± 0.29
- VAS-Sustained Energy Δ from 0 min, Mean [1, 15]: 0.88
- VAS-Sustained Energy Δ, Mean Difference ± SE [1, 15]: 0.02 ± 0.35
- VAS-Sustained Energy Δ from 0 min, Mean [1, 16]: 1.28
- VAS-Sustained Energy Δ, Mean Difference ± SE [1, 16]: 0.72 ± 0.31
- VAS-Ability to concentrate area under the curve, Mean [2, 5]: 1162
- VAS-Ability to concentrate area under the curve, Mean Difference ± SE [2, 6]: 48.1 ± 38.7
- VAS-Ability to concentrate area under the curve, effect size d [2, 6]: 0.16
- VAS-Ability to concentrate rating, Mean [2, 7]: 5.9
- VAS-Ability to concentrate changes from baseline, Mean Difference ± SE [2, 8]: 0.26 ± 0.26
- VAS-Ability to concentrate changes from baseline, effect size d [2, 8]: 0.28
- VAS-Ability to concentrate rating, Mean [2, 9]: 6.5
- VAS-Ability to concentrate changes from baseline, Mean Difference ± SE [2, 10]: 0.15 ± 0.27
- VAS-Ability to concentrate changes from baseline, effect size d [2, 10]: 0.14
- VAS-Ability to concentrate rating, Mean [2, 11]: 6.5
- VAS-Ability to concentrate changes from baseline, Mean Difference ± SE [2, 12]: 0.70 ± 0.23
- VAS-Ability to concentrate changes from baseline, effect size d [2, 12]: 0.68
- VAS-Ability to concentrate rating, Mean [2, 13]: 6.8
- VAS-Ability to concentrate rating, Mean ([2]; Day 0 (before supplementation)): 5.9
- VAS-Motivation area under the curve, Mean [3, 5]: 1113
- VAS-Motivation area under the curve, Mean Difference ± SE [3, 6]: 36.8 ± 37.4
- VAS-Motivation area under the curve, effect size d [3, 6]: 0.11
- VAS-Motivation rating, Mean [3, 7]: 5.7
- VAS-Motivation changes from baseline, Mean Difference ± SE [3, 8]: −0.07 ± 0.27
- VAS-Motivation changes from baseline, effect size d [3, 8]: −0.08
- VAS-Motivation rating, Mean [3, 9]: 6.2
- VAS-Motivation changes from baseline, Mean Difference ± SE [3, 10]: −0.25 ± 0.27
- VAS-Motivation changes from baseline, effect size d [3, 10]: −0.25
- VAS-Motivation rating, Mean [3, 11]: 6.2
- VAS-Motivation changes from baseline, Mean Difference ± SE [3, 12]: 0.53 ± 0.27
- VAS-Motivation changes from baseline, effect size d [3, 12]: 0.50
- VAS-Motivation rating, Mean [3, 13]: 6.6
- VAS-Motivation rating, Mean ([3]; Day 0 (before supplementation)): 5.8
- VAS-Vigor area under the curve, Mean [4, 5]: 1112
- VAS-Vigor area under the curve, Mean Difference ± SE [4, 6]: 21.8 ± 41.5
- VAS-Vigor area under the curve, effect size d [4, 6]: 0.07
- VAS-Vigor rating, Mean [4, 7]: 5.8
- VAS-Vigor changes from baseline, Mean Difference ± SE [4, 8]: 0.02 ± 0.23
- VAS-Vigor changes from baseline, effect size d [4, 8]: 0.02
- VAS-Vigor rating, Mean [4, 9]: 6.2
- VAS-Vigor changes from baseline, Mean Difference ± SE [4, 10]: −0.12 ± 0.25
- VAS-Vigor changes from baseline, effect size d [4, 10]: 0.13
- VAS-Vigor rating, Mean [4, 11]: 6.3
- VAS-Vigor changes from baseline, Mean Difference ± SE [4, 12]: 0.43 ± 0.28
- VAS-Vigor changes from baseline, effect size d [4, 12]: −0.41
- VAS-Vigor rating, Mean [4, 13]: 6.4
- VAS-Vigor rating, Mean ([4]; Day 0 (before supplementation)): 5.8
